Measurements taken from patent publication US10982337B2, “Corrosion inhibition” (SCHLUMBERGER TECHNOLOGY CORPORATION, priority 2015, dated 2021).

Tests used:
[1] = Corrosion weight loss test on steel coupons in HCl
Protocol: Experiments were carried out with coupons of the following steels: • 22Cr125 also designated 2205, a duplex alloy steel which is an iron-chromium-nickel-molybdenum alloy, used (among other things) to fabricate casing. • HS80™ (TradeMark of TENARIS), a low carbon steel used to fabricate coiled tubing. • N80, a medium carbon steel used to fabricate borehole casing. • 13Cr80, an alloy steel containing 13 wt % chromium without nickel, also used to fabricate borehole casing.
(1) Metal Type: Duplex Stainless Steel 22Cr125 Casing (2205 b6); 4 mol/L HCl, T=80° C., 3 Hours Exposure

[2] = Corrosion weight loss test on steel coupons in HCl; design: Pitting Index: scale not given here
From the text: (§1) Such “acceptable” levels of corrosion are application-specific.

[3] = Corrosion weight loss test on steel coupons in HCl; design: Pitting Index: scale not given here; remark: listed apart in the source
From the text: as §1

[4] = Corrosion weight loss test on steel coupons in HCl; design: Pitting Index: scale not given here; remark: listed apart in the source
From the text: as §1

[5] = Solubility in hydrochloric acid solutions; assay type: physicochemical; details: compared with NMTHQ
From the text: As a result, a surfactant is required to solubilise NTHQ for corrosion testing purposes. The surfactant used in this example is P2393, a polyoxyethylene tridecyl ether, C13H27(OCH2CH2)nOH, where n=10.
As a result, a surfactant is required to solubilise NTHQ for corrosion testing purposes. As for example 5 (NTHQ), the surfactant used to solubilise NCOTHQ is P2393, a polyoxyethylene tridecyl ether, C13H27(OCH2CH2)nOH, where n=10.

[6] = Rotating Cylinder Electrode electrochemistry, charge transfer resistance; details: 5 mM inhibitor, 10 mM KI, 4 mol/L HCl, 2000 rpm, 80° C.; FIG. 6
From the text: (§2) EIS can be used to monitor the corrosion rate of a system. The parameter of interest is the charge transfer resistance, Rct, which can be thought of the ‘resistance’ to corrosion. A metal test piece is used as the working electrode in a three-electrode electrochemical cell with the corrosive solution as electrolyte. Impedance data is obtained by applying a small alternating voltage to the working electrode and measuring the resulting current to obtain a value of impedance. This is done at a range of frequencies. Then, in order to extract the parameter of interest, the metal/inhibitor/electrolyte interfaces are modelled as an electrical equivalent circuit and the theoretical impedance is fitted to the data. […] Charge transfer resistance, Rct, is measured. Charge transfer resistance, Rct is a measure for corrosion resistance, and is inversely proportional to corrosion rate (CR). Therefore 1/Rct is proportional to CR.

[7] = as above; details: 5 mM inhibitor, 10 mM KI, 4 mol/L HCl, 2000 rpm, 80° C.; FIG. 6; remark: listed apart in the source
From the text: as §2

[8] = 0.1542 wt % (5.13 mmol/L), KI 0, 2205 (b9), 5 mL 2-butoxyethanol in 200 mL 4 mol/L HCl

With `c1ccc2c(CN3CCCC4CCCCC43)cccc2c1` (stereo not drawn) [NMDHQ, 1-(naphthalen-1-ylmethyl)decahydroquinoline] the “Pitting Index” value ([1]; 0.1414 wt % (5.0 mmol/L) + KI 10 mmol/L, 2205 (b8)) was 0, the “Pitting Index” value ([1]; 0.1414 wt % (5.0 mmol/L) + KI 20 mmol/L, 2205 (b8)) was 0 and the “Pitting Index” value ([1]; 0.3088 wt % (11.05 mmol/L), KI 0, 2205 (b8)) was 1. The “Pitting Index” value ([2]; 0.3068 wt % (10.98 mmol/L), KI 0) was 0, the “Pitting Index” value ([3]; 0.3061 wt % (10.95 mmol/L), KI 0) was 2 and the “Pitting Index” value ([4]; 0.3094 wt % (11.07 mmol/L), KI 0, 13Cr) was 2.

In the case of `c1ccc2ncccc2c1` [Quinoline, reference compound], the “Pitting Index” value ([1]; 0.1421 wt % (11.00 mmol/L), 2205 b6, 4 mol/L HCl, 80° C., 3 hours) is reported as 6.

In the case of `NCCc1cn(Cc2cccc3ccccc23)c2ccccc12` [NMHIE, 2-(1-(Naphthalene-1ylmethyl)-1H-indol-3-yl)ethan-1-amine], the “Pitting Index” value ([1]; 0.1500 wt % (4.99 mmol/L) + KI 20 mmol/L, 2205 (b9), 0.5 wt % P2393 in 4 mol/L HCl) is reported as 0, the “Pitting Index” value ([1]; 0.1542 wt % (5.13 mmol/L), KI 0, 2205 (b9), 0.5 wt % P2393 in 4 mol/L HCl) is reported as 5 and the “Pitting Index” value [1, 8] is reported as 3.

For `c1ccc2c(c1)CCCN2c1cccc2ccccc12` [NTHQ, 1-(naphthalen-1-yl)-1,2,3,4-tetrahydroquinoline], the “Pitting Index” value ([1]; 11.00 mmol/L + additive P2393, 0.5 wt %, 2205 (b5)) was 3, the “solubility in hydrochloric acid solutions (in words)” value [5] was “significantly less soluble than NMTHQ” and the “Pitting Index” value ([3]; 11.00 mmol/L + additive P2393, 0.5 wt %) was 1.

With `c1ccc2c(c1)CCN2Cc1cccc2ccccc12` [NMI, 1-(naphthalen-1-ylmethyl)indoline] the “Pitting Index” value ([1]; 0.1304 wt % (5.03 mmol/L), KI 0, 2205 (b9)) was 3 and the “Pitting Index” value ([1]; 0.1308 wt % (5.04 mmol/L) + KI 20 mmol/L, 2205 (b9)) was 0.

With `c1ccc2c(c1)CCN(Cc1ccc3ccccc3c1)C2` [NMTHisoQ] the “Pitting Index” value ([1]; 0.1366 wt % (5.00 mmol/L) + KI 20 mmol/L, 2205 (b5), 4 mol/L HCl, 80° C., 3 hours) was 0 and the “Pitting Index” value ([1]; 0.1367 wt % (5.00 mmol/L), KI 0, 2205 (b5), 4 mol/L HCl, 80° C., 3 hours) was 1.

For `[I-].[K+]` [KI, potassium iodide, reference compound], the “Pitting Index” value ([1]; KI 10 mmol/L alone, no organic inhibitor, 2205 (b5)) was 5, the “Pitting Index” value ([1]; KI 20 mmol/L alone, no organic inhibitor, 2205 (b5), 4 mol/L HCl, 80° C., 3 hours) was 5 and the “Pitting Index” value ([2]; KI 10 mmol/L alone, no NMTHQ) was 5. For the same compound, the “Pitting Index” value ([3]; KI 10 mmol/L alone, no NMTHQ) was 2 and the “Pitting Index” value ([4]; KI 10 mmol/L alone, no NMTHQ) was 5.

With `c1ccc2c(CN3CCC[C@H]4CCCC[C@@H]43)cccc2c1` [4aR-8aS-NMDHQ] the “Pitting Index” value ([1]; 0.3095 wt % (11.08 mmol/L), KI 0, 2205 (b8)) was 1, the “Pitting Index” value ([2]; 0.3098 wt % (11.09 mmol/L), KI 0) was 1 and the “Pitting Index” value ([3]; 0.3087 wt % (11.05 mmol/L), KI 0) was 2. The “Pitting Index” value ([4]; 0.3076 wt % (11.01 mmol/L), KI 0, 13Cr) was 2.

With `O=C(c1cccc2ccccc12)N1CCCc2ccccc21` [NCOTHQ, (3,4-dihydroquinolin-1(2H)-yl)(naphthalene-1-yl)methanone] the “solubility in hydrochloric acid solutions (in words)” value [5] was “significantly less soluble than NMTHQ”.

In the case of “naphthylmethylquinolinium chloride [NMQCl, reference compound]”, the “Pitting Index” value ([1]; 0.123 wt % (4.03 mmol/L), 2205 b6, 4 mol/L HCl, 80° C., 3 hours) is reported as 4, the “Pitting Index” value ([1]; 0.322 wt % (10.54 mmol/L), 2205 b6, 4 mol/L HCl, 80° C., 3 hours) is reported as 0 and the “Pitting Index” value ([1]; 0.612 wt % (20.00 mmol/L), 2205 b6, 4 mol/L HCl, 80° C., 3 hours) is reported as 0. For the same compound, the “Pitting Index” value ([2]; 0.1534 wt % (5.02 mmol/L), 4 mol/L HCl, 80° C., 3 hours) was 3, the “Pitting Index” value ([2]; 0.3386 wt % (11.07 mmol/L), 4 mol/L HCl, 80° C., 3 hours) was 0 and the “Pitting Index” value ([2]; 0.3394 wt % (11.10 mmol/L), 4 mol/L HCl, 80° C., 3 hours) was 0. The “Pitting Index” value ([3]; 0.0015 wt % (0.05 mmol/L), 4 mol/L HCl, 80° C., 3 hours) was 5, the “Pitting Index” value ([3]; 0.06225 wt % (2.04 mmol/L), 4 mol/L HCl, 80° C., 3 hours) was 0 and the “Pitting Index” value ([3]; 0.1531 wt % (5.01 mmol/L), 4 mol/L HCl, 80° C., 3 hours) was 0. The “Pitting Index” value ([3]; 0.3366 wt % (11.01 mmol/L), 4 mol/L HCl, 80° C., 3 hours) was 0, the “Pitting Index” value ([4]; 0.1545 wt % (5.05 mmol/L), 4 mol/L HCl, 80° C., 3 hours) was 5 and the “Pitting Index” value ([4]; 0.3466 wt % (11.33 mmol/L), 4 mol/L HCl, 80° C., 3 hours) was 0. The “1/Rct (proportional to corrosion rate), NMHQ compared with NMQCl” value [6] was “very similar results” and the “1/Rct (proportional to corrosion rate), NMHQ compared with NMQCl” value [7] was “very similar results”.

In the case of `c1ccc2c(CN3CCOCC3)cccc2c1` [NMM, 4-(naphthalene-1-ylmethyl)morpholine], the “Pitting Index” value ([1]; 0.1397 wt % (5.04 mmol/L) + KI 20.12 mmol/L, 2205 (b9)) is reported as 2 and the “Pitting Index” value ([1]; 0.1402 wt % (5.05 mmol/L), KI 0, 2205 (b9)) is reported as 5.

For `c1ccc2c(CNCCc3c[nH]c4ccccc34)cccc2c1` [HINNME, 2-(1H-indol-3-yl)-N-(naphthalene-1-ylmethyl)ethan-1-amine], the “Pitting Index” value ([1]; 0.1500 wt % (4.99 mmol/L) + KI 20 mmol/L, 2205 (b9), 5 mL 2-butoxyethanol in 200 mL 4 mol/L HCl) was 0 and the “Pitting Index” value [1, 8] was 2.
